Twelve compounds from the OPERA property sets (Mansouri et al. 2018) can be followed below.

As a reminder, the logP is a log measure of how a compound divides between an organic and an aqueous phase. Read a high logP as higher lipophilicity.

Molecules are shown by their SMILES.

Consider `NNC(=O)Nc1ccc([N+](=O)[O-])cc1`, for which the logP is -0.18.

Consider `NNC(=O)Nc1ccccc1[N+](=O)[O-]`, for which the logP was -0.47.

`NNC(=O)Nc1ccccc1` displayed a logP of 0.16.

`COc1ccc(NC(=O)NN)cc1` displayed a logP of 0.17.

As for `NNC(=O)Nc1ccc(C(=O)O)cc1`, the logP was -0.21.

As to `NNC(=O)Nc1ccccc1O`, the logP stood at 0.33.

Consider `NNC(=O)Nc1cccc(C(=O)O)c1`, for which the logP is -0.16.

With `COc1ccccc1NC(=O)NN`, the logP was -0.15.

Regarding `NNC(=O)Nc1ccccc1C(=O)O`, the logP is -0.49.

In turn, `Cc1cccc(NC(=O)NN)c1` had a logP of 0.68.

For `Cc1ccc(NC(=O)NN)cc1`, the logP was 0.69.

`NNC(=O)Nc1ccc(Cl)cc1` returned a logP of 0.87.
